Measurements: PubChem BioAssay AID1259407 (Chemical Carcinogenesis Research Information System (CCRIS), 2018)
Entries after “also recorded” stand apart in the source; their conditions may differ. Calls of active or inactive are those of the source. How the calls were made is not given here.

System: CCRIS mutagenicity, Ames/micronucleus/aberration tests
Test: CCRIS mutagenicity studies
[1] = Test System: AMES SALMONELLA TYPHIMURIUM, Strain/Indicator: TA98, Metabolic Activation: NONE, Method: PREINCUBATION
[2] = Test System: AMES SALMONELLA TYPHIMURIUM, Strain/Indicator: TA100, Metabolic Activation: NONE, Method: PREINCUBATION
[3] = Test System: AMES SALMONELLA TYPHIMURIUM, Strain/Indicator: TA98, Metabolic Activation: NONE, Method: FLUCTUATION TEST
[4] = Test System: AMES SALMONELLA TYPHIMURIUM, Strain/Indicator: TA98, Metabolic Activation: RAT, LIVER, S-9, PCB, Method: PREINCUBATION
[5] = Test System: AMES SALMONELLA TYPHIMURIUM, Strain/Indicator: TA100, Metabolic Activation: NONE, Method: FLUCTUATION TEST
[6] = Test System: AMES SALMONELLA TYPHIMURIUM, Strain/Indicator: TA98, Metabolic Activation: NONE, Method: STANDARD PLATE
[7] = Test System: AMES SALMONELLA TYPHIMURIUM, Strain/Indicator: TA100, Metabolic Activation: NONE, Method: STANDARD PLATE
[8] = Test System: AMES SALMONELLA TYPHIMURIUM, Strain/Indicator: TA100, Metabolic Activation: RAT, LIVER, S-9, AROCLOR 1254, Method: STANDARD PLATE

`O=C1/C(=N\Nc2ccc(/C=C/c3ccc(N/N=C4/C=C(S(=O)(=O)O)c5cccnc5C4=O)cc3S(=O)(=O)O)c(S(=O)(=O)O)c2)C=C(S(=O)(=O)O)c2cccnc21` was tested, and the mutagenic call (Test System: Mouse lymphoma, Strain/Indicator: L5178Y (tk+/tk-), Metabolic Activation: None, Method: Suspension/plate) was “inactive; negative” and the mutagenic call (Test System: Mouse lymphoma, Strain/Indicator: L5178Y (tk+/tk-), Metabolic Activation: Rat, Liver, S-9, Aroclor 1254, Method: Suspension/plate) was “inactive; negative”.
`CC(C)(C)N` was tested, and the mutagenic call (Test System: AMES SALMONELLA TYPHIMURIUM, Strain/Indicator: TA98, Metabolic Activation: HAMSTER, LIVER, S-9, AROCLOR 1254 (10%), Method: PREINCUBATION) was “inactive; negative”, the mutagenic call [1] was “inactive; negative” and the mutagenic call (Test System: AMES SALMONELLA TYPHIMURIUM, Strain/Indicator: TA98, Metabolic Activation: RAT LIVER S-9, PHENOBARBITAL AND BETA-NAPHTHOFLAVONE, Method: PREINCUBATION) was “inactive; negative”. For the same compound, the mutagenic call (Test System: AMES SALMONELLA TYPHIMURIUM, Strain/Indicator: TA98, Metabolic Activation: RAT, LIVER, S-9, AROCLOR 1254 (10%), Method: PREINCUBATION) was “inactive; negative”, the mutagenic call (Test System: AMES SALMONELLA TYPHIMURIUM, Strain/Indicator: TA100, Metabolic Activation: HAMSTER, LIVER, S-9, AROCLOR 1254 (10%), Method: PREINCUBATION) was “inactive; negative” and the mutagenic call [2] was “inactive; negative”. The mutagenic call (Test System: AMES SALMONELLA TYPHIMURIUM, Strain/Indicator: TA100, Metabolic Activation: RAT LIVER S-9, PHENOBARBITAL AND BETA-NAPHTHOFLAVONE, Method: PREINCUBATION) was “inactive; negative”, the mutagenic call (Test System: AMES SALMONELLA TYPHIMURIUM, Strain/Indicator: TA100, Metabolic Activation: RAT, LIVER, S-9, AROCLOR 1254 (10%), Method: PREINCUBATION) was “inactive; negative” and the mutagenic call (Test System: AMES SALMONELLA TYPHIMURIUM, Strain/Indicator: TA1535, Metabolic Activation: HAMSTER, LIVER, S-9, AROCLOR 1254 (10%), Method: PREINCUBATION) was “inactive; negative”. The mutagenic call (Test System: AMES SALMONELLA TYPHIMURIUM, Strain/Indicator: TA1535, Metabolic Activation: NONE, Method: PREINCUBATION) was “inactive; negative”, the mutagenic call (Test System: AMES SALMONELLA TYPHIMURIUM, Strain/Indicator: TA1535, Metabolic Activation: RAT LIVER S-9, PHENOBARBITAL AND BETA-NAPHTHOFLAVONE, Method: PREINCUBATION) was “inactive; negative” and the mutagenic call (Test System: AMES SALMONELLA TYPHIMURIUM, Strain/Indicator: TA1535, Metabolic Activation: RAT, LIVER, S-9, AROCLOR 1254 (10%), Method: PREINCUBATION) was “inactive; negative”. The mutagenic call (Test System: AMES SALMONELLA TYPHIMURIUM, Strain/Indicator: TA1537, Metabolic Activation: HAMSTER, LIVER, S-9, AROCLOR 1254 (10%), Method: PREINCUBATION) was “inactive; negative”, the mutagenic call (Test System: AMES SALMONELLA TYPHIMURIUM, Strain/Indicator: TA1537, Metabolic Activation: NONE, Method: PREINCUBATION) was “inactive; negative” and the mutagenic call (Test System: AMES SALMONELLA TYPHIMURIUM, Strain/Indicator: TA1537, Metabolic Activation: RAT LIVER S-9, PHENOBARBITAL AND BETA-NAPHTHOFLAVONE, Method: PREINCUBATION) was “inactive; negative”. The mutagenic call (Test System: AMES SALMONELLA TYPHIMURIUM, Strain/Indicator: TA1537, Metabolic Activation: RAT, LIVER, S-9, AROCLOR 1254 (10%), Method: PREINCUBATION) was “inactive; negative”, the mutagenic call (Test System: E.COLI, Strain/Indicator: WP2UVRA/PKM101, Metabolic Activation: NONE, Method: PREINCUBATION) was “inactive; negative” and the mutagenic call (Test System: E.COLI, Strain/Indicator: WP2UVRA/PKM101, Metabolic Activation: RAT LIVER S-9, PHENOBARBITAL AND BETA-NAPHTHOFLAVONE, Method: PREINCUBATION) was “inactive; negative”.
With `C[C@H](CCC(=O)O)[C@H]1CC[C@H]2[C@@H]3C(=O)C[C@@H]4CC(=O)CC[C@]4(C)[C@H]3CC[C@]12C` the mutagenic call [3] was “inactive; negative”, the mutagenic call [1] was “inactive; negative” and the mutagenic call [4] was “inactive; negative”. The mutagenic call [5] was “inactive; negative”.
`NC(=O)/C(=C\c1ccc([N+](=O)[O-])o1)c1ccco1` was tested, and the mutagenic call [6] was “active; positive”, the mutagenic call (Test System: AMES SALMONELLA TYPHIMURIUM, Strain/Indicator: TA98, Metabolic Activation: RAT, LIVER, S-9, KC500 OR PHENOBARBITAL, Method: LIQUID SUSPENSION) was “active; positive” and the mutagenic call [2] was “active; positive”. For the same compound, the mutagenic call [7] was “active; positive”, the mutagenic call (Test System: AMES SALMONELLA TYPHIMURIUM, Strain/Indicator: TA100, Metabolic Activation: RAT, LIVER, S-9, KC500 OR PHENOBARBITAL, Method: LIQUID SUSPENSION) was “active; positive” and the mutagenic call (Test System: AMES SALMONELLA TYPHIMURIUM, Strain/Indicator: YG7112, Metabolic Activation: NONE, Method: PREINCUBATION) was “active; positive”. The mutagenic call (Test System: AMES SALMONELLA TYPHIMURIUM, Strain/Indicator: YG7113, Metabolic Activation: NONE, Method: PREINCUBATION) was “active; positive”, the mutagenic call (Test System: AMES SALMONELLA TYPHIMURIUM, Strain/Indicator: YG7119, Metabolic Activation: NONE, Method: PREINCUBATION) was “active; positive” and the mutagenic call (Test System: Ames Salmonella typhimurium, Strain/Indicator: TA100, Metabolic Activation: None, Method: Preincubation) was “active; positive”. The mutagenic call (Test System: Ames Salmonella typhimurium, Strain/Indicator: TA1975P, Metabolic Activation: None, Method: Preincubation) was “active; positive (at higher doses)”, the mutagenic call (Test System: CHINESE HAMSTER V-79, Strain/Indicator: V-79/8-AZAGUANINE, Metabolic Activation: NONE, Method: STANDARD PLATE) was “active; positive” and the mutagenic call (Test System: E. COLI, Strain/Indicator: WP2, Metabolic Activation: NONE, Method: PREINCUBATION) was “active; positive”. The mutagenic call (Test System: E. COLI, Strain/Indicator: WP2 UVRA, Metabolic Activation: NONE, Method: SPOT) was “active; positive”, the mutagenic call (Test System: MOUSE LYMPHOMA, Strain/Indicator: L5178Y (TK+/TK-), Metabolic Activation: NONE, Method: SUSPENSION/PLATE) was “active; positive” and the mutagenic call (Test System: MOUSE LYMPHOMA, Strain/Indicator: L5178Y (TK+/TK-), Metabolic Activation: RAT, LIVER, S-9, AROCLOR 1254, Method: SUSPENSION/PLATE) was “active; positive”.
In the case of `Cc1ccc(S(=O)(=O)N2C3c4ccccc4-c4ccccc4C32)cc1` (stereo unspecified), the mutagenic call [7] is reported as “active; positive”.
`O=C1c2ccccc2-c2c1ccc1ccc3ccccc3c21` was tested, and the mutagenic call [8] was “inactive; negative”.
In the case of `CC(C)(O)CCc1ccc(O)c2c(=O)c3c(O)c4c(cc3oc12)O[C@H]1OC=C[C@@H]41`, the mutagenic call [6] is reported as “active; positive”, the mutagenic call (Test System: AMES SALMONELLA TYPHIMURIUM, Strain/Indicator: TA98, Metabolic Activation: RAT, LIVER, S-9, AROCLOR 1254, Method: STANDARD PLATE) is reported as “active; positive” and the mutagenic call [7] is reported as “active; positive”. For the same compound, the mutagenic call [8] was “active; positive”.
With `CCNc1cc(NC(C)=O)c(N=Nc2c(Cl)cc([N+](=O)[O-])cc2[N+](=O)[O-])cc1OC` the mutagenic call (End Point: IN VITRO CHROMOSOMAL ABERRATIONS, Test System: CHL CELLS, Metabolic Activation: NONE) was “inactive; negative; precipitation of test chemical observed above 0.01 mg/ml; also recorded: active; positive (ploidy changes); precipitation of test chemical observed above 0.01 mg”.
With `C[C@H](CCC(=O)O)[C@H]1CC[C@H]2[C@@H]3CC[C@@H]4CC(=O)CC[C@]4(C)[C@H]3C[C@@H](O)[C@]12C` the mutagenic call [3] was “inactive; negative”, the mutagenic call [1] was “inactive; negative” and the mutagenic call [4] was “inactive; negative”. For the same compound, the mutagenic call [5] was “inactive; negative”.
In the case of `CCN(CC)CCCNc1ccc2nc(C)n3c4ccc(O)cc4c(=O)c1c23`, the mutagenic call (Test System: CHINESE HAMSTER V-79, Strain/Indicator: V-79 (HGPRT)/6-THIOGUANINE, Metabolic Activation: NONE) is reported as “active; positive”.
